Data taken from patent US20240165247A1, “NEW PEPTIDE CONJUGATES” (JIANGYIN USUN PHARMACEUTICAL CO., LTD., priority 2021, published 2024).

Test system: dental ulcer of the patient
Assay: Dental treatment: solution sprayed onto dental ulcer of a patient, pain relief
Format: in vivo, human
Details: 1 mg/mL solution in normal saline
Experimental: A 1 mg/mL solution of the title compound of Example 1 was prepared in normal saline.
The resultant solution was sprayed using a standard spray device onto the dental ulcer of the patient. Pain relief occurred within 1 minute. The duration of pain relief was about 3 hours.

Ala-Lys-Pro-Ser-Tyr-Hyp-Thr-Tyr-Hyp-Lys-Procaine [Example 1]
Duration of pain relief: about 3 hours | Time to occurrence of pain relief: ≤ 1 min
